# According to patent US20100036088A1, “Selective poly-N-substituted glycine antibiotics” (priority 2008, published 2010):
# Square brackets hold non-standard residues; d marks the D form. Peptide text beside a SMILES is read from it. Nspe = C[C@H](NCC(=O)O)c1ccccc1; Nlys = NCCCCNCC(=O)O
# Columns and labels:
# [1] = system: both strains of E. faecalis; assay type: cell-based; conditions: range over strains
# Protocol: The activities of ampetoids tested against BSL2 Gram-positive strains, however, compared very favorably to those of pexiganan.
# Broad-spectrum antibacterial assays. MICs of compounds were determined by microdilution procedure in Mueller-Hinton broth (MHB) in accordance with CLSI M7-A6 protocols in a manner similar to that described for the screen antibacterial assays. Inoculated microtiter plates were incubated at 35° C. for 24 hours prior to the result being recorded. Four ATCC strains that were used as standards are recommended by CLSI: Pseudomonas aeruginosa ATCC 27853, Escherichia coli ATCC 25922, Staphylococcus aureus ATCC 29213 and Enterococcus faecalis ATCC 29212. Other strains from the ATCC collection include Proteus vulgaris ATCC 49132, Proteus mirabilis ATCC 35659, Klebsiella pneumoniae ATCC 33495, Enterobacter aerogenes ATCC 35029 and Serratia marcescens ATCC 13880. S. aureus NRS100 (COL) is a well characterized methicillian-resistant S. aureus (MRSA) strain. The strains S. aureus VAN1 and S. aureus VAN2, vancomycin-resistant MRSA strains that were isolated in Michigan and Pennsylvania, were the first vancomycin-resistant strains clinically isolated. S. aureus NRS119 and S. aureus NRS120 are linezolid-resistant isolates from the Network on Antimicrobial Resistance in S. aureus (NARSA) collection. E. faecalis 99 and E. faecium 106 are vancomycin-resistant enterococcal strains.
# B. subtilis BR151 = assay type: cell-based; conditions: Table 1
# Description: An initial set of 15 ampetoid analogs was synthesized to determine whether peptoids are affected by structural and sequence modifications in a manner consistent with AMP activities. The designs for ampetoids in this library were derived from two antibacterial and selective amphipathic dodecamers, 1 and 2. Peptoid 1 [H-(Nlys-Nspe-Nspe)4—NH2] is composed of 2/3 Nspe, the peptoid analog of phenylalanine, and 1/3 Nlys, the peptoid analog of lysine (see FIG. 1 for the structures of representative peptoid monomers and corresponding N-substituents). Peptoid 2 [H-(Nlys-Nssb-Nspe)4—NH2] contains 1/3 isoleucine-like Nssb monomers in place of Nspe. The variant sequences were designed to effect changes in chirality, length, hydrophobicity, charge, and amphipathicity. All of these compounds were tested for antibacterial activity against representative BSL1 Gram-negative (E. coli JM109) and Gram-positive (B. subtilis BR151) bacterial strains. As an initial measure of selectivity, the lytic activity of the peptoids was determined against human erythrocytes. Table 1 summarizes the sequences synthesized, the solvent composition at RP-HPLC elution as a relative measure of molecular hydrophobicity, and antibacterial and hemolytic activities.
# Antibacterial assays. MICs were determined according to CLSI M7-A6 protocols in a 96-well microtiter plate. In test wells, 50 μL bacterial inoculum (5×10^5 CFU/ml) in Mueller-Hinton broth (MHB) was added to 50 μL peptoid solution in MHB (prepared by 1:2 serial dilutions). Positive controls contained 50 μL inoculum and 50 μL MHB without peptoid. […] MIC values reported were reproducible between three independent experimental replicates, each consisting of two parallel trials. Broad-spectrum antimicrobial susceptibility testing was performed against BSL2 pathogens by Nova Biologicals, Inc. (Conroe, Tex.).
smiles,measurement,setting,value
"C[C@@H](c1ccccc1)N(CC(N)=O)C(=O)CN(C(=O)CN(CCCCN)C(=O)CN(C(=O)CN(C(=O)CN(CCCCN)C(=O)CN(C(=O)CN(C(=O)CN(CCCCN)C(=O)CN(C(=O)CN(C(=O)CNCCCCN)[C@@H](C)c1ccccc1)[C@@H](C)c1ccccc1)[C@@H](C)c1ccccc1)[C@@H](C)c1ccccc1)[C@@H](C)c1ccccc1)[C@@H](C)c1ccccc1)[C@@H](C)c1ccccc1 [compound 1, H-(NLys-Nspe-Nspe)4-NH2] (H-[Nlys][Nspe][Nspe][Nlys][Nspe][Nspe][Nlys][Nspe][Nspe][Nlys][Nspe][Nspe]-NH2)",MIC against both strains of E. faecalis,[1],4 to 8 mg/L
same,B. subtilis MIC,B. subtilis BR151,0.88 µM
